Data taken from ChEMBL document CHEMBL1201862, “PubChem BioAssay data set” (2004).
Calls of active or inactive are those of the source. For most assays here, no stated cut-off is given here; in the data, actives have a measured EC50 and inactives only a lower limit.

Key:
[1] = cytotoxicity toward NIH3T3 fibroblasts, dose response, counter-screen, cell-based, ATP luminescence, mouse fibroblasts (AID 2010); type: functional;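 further: cells exposed to compound for about 90 hours before reading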
[2] = inhibitors of intracellular T. cruzi replication, confirmation, NIH3T3 host cells, beta-gal luminescence (AID 2044); type: functional, cell-based;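 further: intracellular parasites grown in NIH/3T3 mouse fibroblasts as host cells; luminescent beta-galactosidase reporter signal from transgenic T. cruzi replicating inside host cells; inhibitors lower the luminescence signal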
[3] = Luminescence Cell-Based Dose Confirmation HTS to Identify Activators of 5'UTR Stem-Loop Driven Alpha-Synuclein mRNA Translation in H4 Neuroglioblastoma Cells. [Related pubchem assays: 1829 (Project Summary), 1814 (Primary HTS)]; type: functional
H4 = test: Luminescence Cell-Based Dose Response HTS to Identify Activators of 5'UTR Stem-Loop Driven Prion Protein mRNA Translation in H4 Neuroglioblastoma Cells. [Related pubchem assays: 1829 (Project Summary), 1814 (Primary HTS)]; type: functional; conditions: Homo sapiens
[4] = Luminescence Cell-Based Dose Response HTS to Identify Activators of Luciferase Translation or Activity in H4 […] Cells. [Related pubchem assays: 1829 (Project Summary), 1814 (Primary HTS)]; type: functional
Cytochrome P450 2C9 = Cytochrome P450 2C9 (Homo sapiens, UniProt P11712)
Cytochrome P450 2C9, sequence (P11712 whole entry): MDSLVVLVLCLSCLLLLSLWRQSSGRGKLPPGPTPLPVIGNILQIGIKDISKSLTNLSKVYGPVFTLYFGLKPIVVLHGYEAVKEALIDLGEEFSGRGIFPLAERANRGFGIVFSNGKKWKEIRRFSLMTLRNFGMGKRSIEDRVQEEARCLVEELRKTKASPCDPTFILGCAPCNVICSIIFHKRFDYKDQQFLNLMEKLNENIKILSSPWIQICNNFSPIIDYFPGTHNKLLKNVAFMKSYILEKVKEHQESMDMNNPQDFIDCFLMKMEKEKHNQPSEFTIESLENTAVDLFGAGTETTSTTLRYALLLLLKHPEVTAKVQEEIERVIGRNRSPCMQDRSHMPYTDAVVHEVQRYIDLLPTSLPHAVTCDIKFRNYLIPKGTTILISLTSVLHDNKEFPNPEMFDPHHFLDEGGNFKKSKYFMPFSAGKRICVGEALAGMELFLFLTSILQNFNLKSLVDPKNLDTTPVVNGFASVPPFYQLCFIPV

[5] = target: T1, Corticotropin-releasing factor receptor 2/Corticotropin-releasing factor-binding protein (Homo sapiens, UniProt P24387+Q13324); test: activators of CRF receptor 2 with binding protein – uHTS hits, confirmation (AID 602473); type: functional; conditions: read-out: EC50_Mean
T1 sequence (Q13324 whole entry): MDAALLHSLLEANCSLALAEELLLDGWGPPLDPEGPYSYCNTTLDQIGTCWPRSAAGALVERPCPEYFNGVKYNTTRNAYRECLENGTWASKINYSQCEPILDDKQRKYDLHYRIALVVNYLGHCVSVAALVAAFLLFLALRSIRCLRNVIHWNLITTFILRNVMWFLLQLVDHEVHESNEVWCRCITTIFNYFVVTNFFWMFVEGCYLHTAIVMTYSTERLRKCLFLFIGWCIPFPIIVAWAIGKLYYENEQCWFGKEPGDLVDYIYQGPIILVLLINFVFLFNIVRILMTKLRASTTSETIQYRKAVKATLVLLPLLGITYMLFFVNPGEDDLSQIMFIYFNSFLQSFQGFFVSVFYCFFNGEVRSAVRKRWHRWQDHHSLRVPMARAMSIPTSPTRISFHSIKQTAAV
T1 sequence (P24387 whole entry): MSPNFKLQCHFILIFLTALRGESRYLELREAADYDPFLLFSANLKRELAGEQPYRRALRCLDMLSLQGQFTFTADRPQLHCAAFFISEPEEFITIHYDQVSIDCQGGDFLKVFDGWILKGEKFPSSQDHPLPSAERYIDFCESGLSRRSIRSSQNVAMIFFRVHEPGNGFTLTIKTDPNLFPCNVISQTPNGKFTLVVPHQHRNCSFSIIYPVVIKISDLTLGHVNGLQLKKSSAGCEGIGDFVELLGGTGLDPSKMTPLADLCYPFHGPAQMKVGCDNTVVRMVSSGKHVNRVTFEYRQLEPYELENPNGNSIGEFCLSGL

[6] = test system: Streptococcus sp. 'group A'; test: growth inhibition of control SK(-) GAS strain, dose response, counter-screen for streptokinase expression inhibitor project, luminescence, kanamycin, BacTiterGlo, confirmation (AID 1900); type: functional, organism-based
Streptococcus = test: Group A Streptococcus viability loss, dose response, counter-screen for streptokinase expression inhibitor project, luminescence, BacTiterGlo (AID 1915); type: functional, organism-based;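 further: potency for reduction of bacterial viability or growth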
Streptokinase A = target: T2, Streptokinase A (Streptococcus pyogenes serotype M1, UniProt P10520); test: S. pyogenes streptokinase expression inhibitors, potency, dose response, plasminogen activation absorbance, OD405 (AID 1914); type: functional, Streptococcus pyogenes M1 GAS;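 further: secreted streptokinase activity via plasminogen activation per viability signal from cell pellet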
T2 sequence (P10520 whole entry): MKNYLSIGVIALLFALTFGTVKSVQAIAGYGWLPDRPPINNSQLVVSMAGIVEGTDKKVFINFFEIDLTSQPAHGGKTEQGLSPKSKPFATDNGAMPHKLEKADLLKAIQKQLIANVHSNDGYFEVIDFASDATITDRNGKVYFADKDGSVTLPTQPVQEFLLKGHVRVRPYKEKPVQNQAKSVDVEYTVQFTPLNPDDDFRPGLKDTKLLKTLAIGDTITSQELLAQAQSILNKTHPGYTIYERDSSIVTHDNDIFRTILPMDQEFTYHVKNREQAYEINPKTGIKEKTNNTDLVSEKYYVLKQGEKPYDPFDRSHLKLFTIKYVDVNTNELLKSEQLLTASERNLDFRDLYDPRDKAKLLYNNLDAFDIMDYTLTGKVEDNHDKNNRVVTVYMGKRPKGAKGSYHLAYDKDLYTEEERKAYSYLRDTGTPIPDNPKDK

| SMILES | EC50 [1] | EC50 [2] | EC50 [3] | EC50 (H4) | EC50 [4] | also measured |
| --- | --- | --- | --- | --- | --- | --- |
| CC1=CC(C)(C)N2C(=O)C3(C(C#N)=C(N)Oc4cc(C)oc(=O)c43)c3cc(C)cc1c32 (centres undefined) | > 60 µM (not active) | 0.253 µM (active) |  |  |  |  |
| CCOc1ccc(/C=C/C(=O)C(C(N)=O)=C2SCCS2)cc1 |  |  | 1.98 µM (active) | 7.17 µM (active) | > 120 µM (not active) |  |
| COc1ccc2[nH]c3c(c2c1)CN(C)CC3 |  |  |  |  |  | AC50 (Cytochrome P450 2C9): 39.8 µM (inconclusive) |
| CC(C)c1ccc(CNc2ccc3c(c2)ncn3C)cc1 |  |  | 0.217 µM (active) | > 120 µM (not active) | 0.228 µM (inconclusive) |  |
| CC1(C)OC2OC(COC(=O)c3ccccc3)C3OC(C)(C)OC3C2O1 (centres undefined) |  |  | 15.5 µM (active) | 17.3 µM (active) | 10.1 µM (active) |  |
| O=C(Nc1ccc(-n2ccc(C(F)(F)F)n2)cc1)Nc1cccc(Cl)c1 | 6.82 µM (active) | 2.01 µM (active) |  |  |  |  |
| Cc1ccc(-c2nn(-c3ccccc3)cc2C(=O)Nc2ccc(C)c(S(=O)(=O)N3CCOCC3)c2)cc1 | > 60 µM (not active) | 1.57 µM (active) | > 120 µM (not active) | > 120 µM (not active) | > 120 µM (not active) |  |
| CC1C(=O)OC2C1CCC1(C)CCC(=O)C(C)C21 (centres undefined) | > 60 µM (not active) | 2.61 µM (active) |  |  |  |  |
| Cc1ccc(CNC(=O)c2cccc3c2C(=O)c2ccc(N4CCCCC4)cc2S3(=O)=O)cc1 |  |  |  |  |  | EC50 [5]: 6.87 µM (active) |
| CN(C(=O)c1cccc(N2C(=O)C3C4C=CC(C4)C3C2=O)c1)C1CCCCC1 (centres undefined) |  |  | > 120 µM (not active) | > 120 µM (not active) | > 120 µM (not active) |  |
| CNC(=S)N1CCN(c2cccc(OC)c2)CC1 |  |  |  |  |  | AC50 (Cytochrome P450 2C9): 22.4 µM (inconclusive) |
| COc1ccc2cc(C(=O)NCC3CCCO3)[nH]c2c1 (centres undefined) |  |  | 7.02 µM (active) |  | 22.9 µM (active) |  |
| CCOc1ccc(C(=O)Nc2c(C(=O)N3CCC(N4CCCCC4)CC3)oc3ccccc23)cc1 | > 60 µM (not active) | 6.28 µM (active) |  |  |  |  |
| Cc1cccc(N2CCN(C(c3ccncc3)c3nnnn3C(C)(C)C)CC2)c1C (centres undefined) | > 60 µM (not active) | 2.57 µM (active) |  |  |  |  |
| O=C(CSc1nnc(CNC(=O)c2ccc(F)cc2)o1)NCc1ccccc1Cl |  |  |  |  |  | EC50 [6]: > 150 µM (not active); EC50 (Streptococcus): > 150 µM (not active); EC50 (Streptokinase A): > 150 µM (not active) |
| O=C(/C=C/c1ccc([N+](=O)[O-])s1)N1CCN(c2ccccc2)CC1 | 9.18 µM (active) | 1.81 µM (active) |  |  |  |  |
| CCOC(=O)c1c(CN(C)C)n(-c2ccc(C)cc2)c2cc(Br)c(O)cc12 |  |  |  |  |  | EC50 [6]: 8.71 µM (active); EC50 (Streptococcus): > 150 µM (not active); EC50 (Streptokinase A): 21.9 µM (active) |
| N#Cc1c(N)n(Cc2ccccc2)c(=O)c2cc([N+](=O)[O-])ccc12 | > 60 µM (not active) | 1.41 µM (active) |  |  |  |  |
| CN(C)c1ccc(/C=C2\Oc3ccc(C#Cc4cccc(N)c4)cc3C2=O)cc1 |  |  |  |  |  | EC50 [5]: 5.04 µM (active) |
| Oc1nc2cc3c(cc2cc1C(c1nnnn1C1CCCCC1)N1CCSCC1)OCCO3 (centres undefined) |  |  |  |  |  | EC50 [5]: > 53 µM (inactive) |
| CCCCOC(=O)c1[nH]c(C)c(C(=O)OC)c1C |  |  | 2.88 µM (active) | 37.7 µM (active) | 51.1 µM (active) |  |
| COc1ccc2c(c1OC)CN1CCc3cc4c(cc3C1C2)OCO4 (centres undefined) [TETRAHYDROBERBERINE] | > 60 µM (not active) | 3.43 µM (active) |  |  |  |  |
| O=C(NCCCn1ccnc1)c1sc2cccc(F)c2c1Cl | > 60 µM (not active) | 2.02 µM (active) |  |  |  |  |
| Cc1ccnc(NC(=O)CCCNC(=O)c2ccc(Cl)cc2)c1 |  |  | 18.2 µM (active) | 51.9 µM (active) | 24.3 µM (active) |  |
| Cc1ccc(-c2nc3ccccc3n3nnnc23)cc1 |  |  | 0.363 µM (active) | 4.81 µM (active) | 10.1 µM (active) |  |

| SMILES | EC50 [1] | EC50 [2] | EC50 [3] | EC50 (H4) | EC50 [4] | also measured |
| --- | --- | --- | --- | --- | --- | --- |
| CSCCC(=O)Nc1cc(S(=O)(=O)N2CCOCC2)ccc1N1CCN(C)CC1 | > 60 µM (not active) | 1.94 µM (active) |  |  |  |  |
| NC(=O)c1ccccc1Nc1nc2nc3ccccc3c(=O)n2cc1Br |  |  | > 120 µM (not active) | > 120 µM (not active) | 8.23 µM (active) |  |
| COc1ccc(NC(=N)Nc2nc(C)cc(C)n2)cc1 |  |  |  |  |  | EC50 [5]: 13.5 µM (active) |
| O=[N+]([O-])c1cccc(-c2nnn(C34CC5CC(CC(C5)C3)C4)n2)c1 |  |  | > 120 µM (not active) | 15 µM (active) | 7.38 µM (active) |  |
| Cn1c(=O)c(-c2cccs2)nc2cnc(Oc3ccccc3)nc21 |  |  |  |  |  | AC50 (Cytochrome P450 2C9): 20 µM (inconclusive) |
| NC(=O)NCc1ccc(Cl)cc1 |  |  |  |  |  | AC50 (Cytochrome P450 2C9): 0.0501 µM (inconclusive) |
| COc1cc2cc3c(N)c(C(=O)NCc4ccco4)sc3nc2cc1OC |  |  | 73.7 µM (active) | 11.1 µM (active) | 49.9 µM (active) |  |
| Cc1cc(Oc2ccccc2)nc(NCc2ccccc2)n1 |  |  |  |  |  | AC50 (Cytochrome P450 2C9): 10 µM (inconclusive) |
| Cc1cccc(CNc2ncncc2-c2cccc(NS(C)(=O)=O)c2)c1 |  |  |  |  |  | AC50 (Cytochrome P450 2C9): 1 µM (inconclusive) |
| CCOCCCN1C(=O)CN(C2CCCCC2)C(=O)C1c1ccc(OCC)c(OC)c1 (centres undefined) |  |  |  |  |  | AC50 (Cytochrome P450 2C9): 11.2 µM (inconclusive) |
| CCCOc1cccc(CN2CCCCC2c2cccnc2)c1 (centres undefined) | > 60 µM (not active) | 1.53 µM (active) |  |  |  |  |
| Cc1cc(C)c2c(CN3CCC(C)CC3)cc(=O)oc2c1 |  |  | 0.419 µM (active) | 26.3 µM (active) | > 120 µM (not active) |  |
| Cc1ccc(C2NC(=O)c3c(sc(C)c3C)N2)c(O)c1 (centres undefined) |  |  | 3.83 µM (active) | 21.7 µM (active) | 22.4 µM (active) |  |
| Brc1ccccc1C1CC(c2ccccc2)=Nc2ccccc2N1 (centres undefined) |  |  | 9.58 µM (active) | 36.5 µM (active) | 11.5 µM (active) |  |
| N=C(NOC(=O)C1CCCCC1)c1ccc(Br)cc1 |  |  | 27.6 µM (active) | 1.23 µM (active) | 28.7 µM (active) |  |
| O=C(c1cnccn1)N1CCC2(CC1)CN(c1ccncc1)C2 |  |  |  |  |  | AC50 (Cytochrome P450 2C9): 25.1 µM (inconclusive) |
| CC(C)c1ccc(NC(=O)N2CCc3ccccc3C2)cc1 |  |  | 12.1 µM (active) | 18.3 µM (active) | 12.2 µM (active) |  |
| c1ccc(-c2cc(-c3nc4ccccc4[nH]3)c3ccccc3n2)cc1 | > 60 µM (not active) | 1.7 µM (active) |  |  |  |  |
| COc1cccc(CC2(CO)CCCN(Cc3cc4ccccc4[nH]3)C2)c1 (centres undefined) | > 60 µM (not active) | 0.834 µM (active) |  |  |  | EC50 [5]: 18.1 µM (active) |
| CCOC(=O)c1sc(N(Cc2ccccc2)C(=O)CN2C(=O)CN(C)C2=O)nc1C |  |  |  |  |  | AC50 (Cytochrome P450 2C9): 11.2 µM (inconclusive) |
| Cn1c(C(=O)NCc2cccnc2)cc2sc(Cl)cc21 | > 60 µM (not active) | 0.488 µM (active) |  |  |  |  |
| Cc1cc(C)c(C)c(C(=O)CSc2nnc(-c3ccc4[nH]c(C)c(C)c4c3)o2)c1C | > 60 µM (not active) | 1.61 µM (active) |  |  |  |  |
| CCc1ccc(NC(=O)C(C)OC(=O)/C=C/c2ccc(O)c(OC)c2)cc1 (centres undefined) |  |  |  |  |  | EC50 [5]: 5.63 µM (active) |
| CC(=O)c1cn(CCCCCCCCCCn2cc(C(C)=O)c(=O)[nH]c2=O)c(=O)[nH]c1=O |  |  |  |  |  | AC50 (Cytochrome P450 2C9): 3.16 µM (inconclusive) |
